{"source": "patent US8420336B2", "about": "“Method of bioassaying yokukansan” (priority 2008, dated 2013)", "key": {"AMPA receptors": {"target": "AMPA receptors", "experiment": "Binding test for test drug to AMPA receptors ([3H]AMPA competition)", "parameters": "species or system Wistar rat", "conditions": "labeled ligand of the assay, listed among the conditions", "protocol": "(§1) 20 mg of a test drug (TJ-54 or an extract of the constituent crude drug) was weighed. Distilled water was added to the test drug so as to give a concentration of 20 mg/125 μL (20 mg/100 μL for the extract of the constituent crude drug), and further the resulting solution was diluted to 2-fold with DMSO, which was used as a stock solution. This stock solution was diluted to have each concentration.\n(2) Binding Test for Test Drug to AMPA Receptors\n20 mL/g of 50 mM Tris-HCl buffer (containing 200 mM KSCN) was added to the cerebral cortex tissue collected from a Wistar rat. […]\n(§2) After completion of the incubation, the mixture was filtered through a glass fiber filter (Whatman 1821-915 GF/B, Whatman) using a cell harvester (Brandel MLR-48, Skatron micro-96, Perkin Elmer), and the filter was washed 3 to 6 times with 50 mM Tris-HCl buffer. Then, the radioactivity of [^3H]AMPA on the glass fiber filter was measured using a liquid scintillation counter (Wallac Counter, Perkin Elmer). As for the nonspecific binding, the radioactivity of [^3H]AMPA in the presence of 1000 μM unlabeled L-glutamate was measured. As for the total binding, the radioactivity of [^3H]AMPA in the absence of the test drug was measured. The binding activity of the test drug was evaluated on the basis of the binding inhibition ratio obtained from the above formula. […]"}, "[1]": {"target": "glutamate binding site of NMDA receptors", "experiment": "Binding test for test drug to glutamate binding site of NMDA receptors ([3H]CGP-39653 competition)", "parameters": "species or system Wistar rat", "conditions": "labeled ligand of the assay; listed among the conditions", "protocol": "as §1\n(4) Binding Test for Test Drug to Glutamate Binding Site of NMDA Receptors\n20 mL/g of 50 mM Tris-HCl buffer was added to the cerebral cortex tissue collected from a Wistar rat. The resulting mixture was homogenized, and the homogenate was centrifuged (1,000×g for 10 minutes at 4° C.). […]\nas §2, with “[^3H]CGP-39653” for “[^3H]AMPA”, “measured.” for “measured. The binding activity of the test drug was evaluated on the basis of the binding inhibition ratio obtained from the above formula.”"}, "glutamate receptors": {"target": "glutamate receptors", "experiment": "Non-selective binding test for test drug to glutamate receptors ([3H]L-glutamate competition)", "parameters": "species or system Wistar rat", "conditions": "labeled ligand of the assay; listed among the conditions of the experiment", "protocol": "as §1\n(1) Non-Selective Binding Test for Test Drug to Glutamate Receptors\n20 mL/g of 50 mM Tris-HCl buffer was added to the brain tissue collected from a Wistar rat. […]\nas §2, with “[^3H]L-glutamate” for “[^3H]AMPA”, “50” for “1000”, “calculated from” for “evaluated on”, “following” for “basis of the”, “(%).” for “obtained from the above formula.”"}, "[2]": {"target": "T1, glycine binding site of NMDA receptors (Rattus norvegicus, UniProt P35439)", "T1 construct": "cerebral cortex tissue collected from a Wistar rat; from tissue; host or cells: cerebral cortex of Wistar rat, membrane fraction", "experiment": "Binding test for test drug to glycine binding site of NMDA receptors ([3H]MDL-105519 competition)", "parameters": "species or system Wistar rat", "conditions": "labeled ligand of the assay; listed among the conditions", "procedure": "20 mL/g of 50 mM HEPES buffer was added to the cerebral cortex tissue collected from a Wistar rat. The resulting mixture was homogenized, and the homogenate was centrifuged (1,000×g for 10 minutes at 4° C.). Then, the resulting supernatant was collected and centrifuged (20,000×g for 20 minutes at 4° C.) to obtain a pellet. The pellet was resuspended in a buffer and the suspension was centrifuged (8,000×g for 20 minutes at 4° C.). Further, the resulting supernatant was collected and centrifuged (48,000×g for 20 minutes at 4° C.) to obtain a pellet. […]\nAfter completion of the incubation, the mixture was filtered through a glass fiber filter (Whatman 1821-915 GF/B, Whatman) using a cell harvester (Brandel MLR-48, Skatron micro-96, Perkin Elmer), and the filter was washed 3 to 6 times with 50 mM HEPES buffer. Then, the radioactivity of [^3H]MDL-105519 on the glass fiber filter was measured using a liquid scintillation counter (Wallac Counter, Perkin Elmer). As for the nonspecific binding, the radioactivity of [^3H]MDL-105519 in the presence of 10 μM unlabeled MDL-105519 was measured. As for the total binding, the radioactivity of [^3H]MDL-105519 in the absence of the test drug was measured. The binding activity of the test drug was evaluated on the basis of the binding inhibition ratio obtained from the above formula. […]"}, "kainate receptors": {"target": "kainate receptors", "experiment": "Binding test for test drug to kainate receptors ([3H]kainic acid competition)", "parameters": "species or system Wistar rat", "conditions": "labeled ligand of the assay; listed among the conditions", "protocol": "as §1\n(3) Binding Test for Test Drug to Kainate Receptors\n20 mL/g of 50 mM Tris-HCl buffer was added to the brain tissue excluding the cerebellum tissue collected from a Wistar rat. The resulting mixture was homogenized, and centrifugation (48,000×g for 15 minutes at 4° C.) of the homogenate was repeated three times to obtain a membrane fraction. […]\nThen, the radioactivity of [^3H]kainic acid on the glass fiber filter was measured using a liquid scintillation counter (Wallac Counter, Perkin Elmer). As for the nonspecific binding, the radioactivity of [^3H]kainic acid in the presence of 1000 μM unlabeled L-glutamate was measured. As for the total binding, the radioactivity of [^3H]kainic acid in the absence of the test drug was measured. The binding activity of the test drug was evaluated on the basis of the binding inhibition ratio obtained from the above formula. […]"}, "human recombinant mGluR5": {"target": "T2, human recombinant mGluR5 (Homo sapiens, UniProt P41594)", "T2 construct": "purchased Perkin Elmer; host or cells: CHO-K1 cell membranes", "T2 sequence (P41594 21-1212)": "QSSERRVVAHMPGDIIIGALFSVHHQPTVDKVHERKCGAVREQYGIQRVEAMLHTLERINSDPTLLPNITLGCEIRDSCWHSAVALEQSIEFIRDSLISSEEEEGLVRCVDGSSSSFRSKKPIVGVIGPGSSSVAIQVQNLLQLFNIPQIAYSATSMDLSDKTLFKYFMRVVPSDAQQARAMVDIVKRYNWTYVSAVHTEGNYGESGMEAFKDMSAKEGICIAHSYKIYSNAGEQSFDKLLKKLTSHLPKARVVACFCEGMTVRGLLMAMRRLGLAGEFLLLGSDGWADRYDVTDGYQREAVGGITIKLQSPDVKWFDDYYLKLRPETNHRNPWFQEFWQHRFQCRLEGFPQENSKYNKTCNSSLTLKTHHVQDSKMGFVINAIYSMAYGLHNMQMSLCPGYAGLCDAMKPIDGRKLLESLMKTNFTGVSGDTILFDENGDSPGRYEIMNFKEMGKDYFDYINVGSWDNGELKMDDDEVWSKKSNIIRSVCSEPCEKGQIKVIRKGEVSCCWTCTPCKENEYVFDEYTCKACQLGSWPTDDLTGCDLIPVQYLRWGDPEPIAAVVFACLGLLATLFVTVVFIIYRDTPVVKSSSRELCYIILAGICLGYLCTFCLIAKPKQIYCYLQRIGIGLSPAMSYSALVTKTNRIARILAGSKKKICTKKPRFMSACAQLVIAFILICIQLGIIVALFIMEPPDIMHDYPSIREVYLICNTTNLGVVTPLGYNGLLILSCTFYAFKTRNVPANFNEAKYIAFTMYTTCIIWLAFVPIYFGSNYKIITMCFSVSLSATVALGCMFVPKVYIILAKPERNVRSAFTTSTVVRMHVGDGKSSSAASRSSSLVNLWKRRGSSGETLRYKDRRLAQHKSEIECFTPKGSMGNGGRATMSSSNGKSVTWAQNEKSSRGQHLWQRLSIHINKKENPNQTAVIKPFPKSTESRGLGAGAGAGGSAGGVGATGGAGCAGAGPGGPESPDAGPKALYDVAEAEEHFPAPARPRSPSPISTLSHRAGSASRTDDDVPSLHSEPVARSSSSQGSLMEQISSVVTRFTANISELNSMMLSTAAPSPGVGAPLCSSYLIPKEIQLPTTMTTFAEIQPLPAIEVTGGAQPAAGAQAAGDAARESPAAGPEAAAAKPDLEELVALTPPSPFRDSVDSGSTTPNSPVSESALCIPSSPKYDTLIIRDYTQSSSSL", "experiment": "Binding test for test drug to metabotropic glutamate receptor mGluR5 ([3H]quisqualic acid competition)", "conditions": "labeled ligand of the assay; listed among the conditions", "procedure": "(6) Binding Test for Test Drug to Metabotropic Glutamate Receptor mGluR5\n30 μg protein/100 μL of a CHO-K1 cell membrane solution, 20 μL of [^3H]quisqualic acid (final concentration: 0.03 μM) and 1.1 μL of the test drug solution of each concentration were added to a 1 mL tube, and the resulting mixture was incubated at 25° C. for 2 hours. In the control group, a DMSO solution (final concentration: 0.5%) was added, and the resulting mixture was incubated in the same manner.\nAfter completion of the incubation, the mixture was filtered through a glass fiber filter (Whatman 1821-915 GF/B, Whatman) using a cell harvester (Micro 96 FilterMate, Perkin Elmer), and the filter was washed 6 times with 20 mM HEPES buffer. Then, the radioactivity of [^3H]quisqualic acid on the glass fiber filter was measured using a liquid scintillation counter (Wallac Counter). As for the nonspecific binding, the radioactivity of [^3H]quisqualic acid in the presence of 1000 μM unlabeled L-glutamate was measured. As for the total binding, the radioactivity of [^3H]quisqualic acid in the absence of the test drug was measured. The binding activity of the test drug was evaluated on the basis of the binding inhibition ratio obtained from the above formula.\nThe respective conditions in this experiment are as follows. […]"}}, "note": "Where two headings read alike, the source gives them in different places."}
{"compound": "Cc1onc(O)c1CC(N)C(=O)O", "note": "(stereo not drawn) [[^3H]AMPA, α-amino-3-hydroxy-5-methyl-4-isoxazolepropionate]", "values": [{"measurement": "Kd", "setting": "AMPA receptors; Kd1, read-out: Kd (Kd1)", "result": 18, "unit": "nM"}, {"measurement": "Kd", "setting": "AMPA receptors; Kd2, read-out: Kd (Kd2)", "result": 990, "unit": "nM"}]}
{"compound": "CCCC(=CC(N)C(=O)O)CP(=O)(O)O", "note": "(stereo not shown) [[^3H]CGP-39653]", "values": [{"measurement": "Kd", "setting": "[1]", "result": 19, "unit": "nM"}]}
{"compound": "N[C@@H](CCC(=O)O)C(=O)O", "note": "[[^3H]L-glutamate, L-glutamate]", "values": [{"measurement": "Kd", "setting": "glutamate receptors", "result": 293, "unit": "nM"}]}
{"compound": "O=C(O)C(=Cc1c(C(=O)O)[nH]c2cc(Cl)cc(Cl)c12)c1ccccc1", "note": "[[^3H]MDL-105519]", "values": [{"measurement": "Kd", "setting": "[2]", "result": 6, "unit": "nM"}]}
{"compound": "C=C(C)[C@H]1CN[C@H](C(=O)O)[C@H]1CC(=O)O", "note": "[[^3H]kainic acid, kainic acid]", "values": [{"measurement": "Kd", "setting": "kainate receptors", "result": 12, "unit": "nM"}]}
{"compound": "N[C@@H](Cn1oc(=O)[nH]c1=O)C(=O)O", "note": "[[^3H]quisqualic acid, quisqualic acid]", "values": [{"measurement": "Kd", "setting": "human recombinant mGluR5", "result": 26, "unit": "nM"}]}
